Patent US20080051400A1, “Methods for treating or preventing anemia or thrombocytopenia using a triheterocyclic compound” (Gemin X Biotechnologies Inc., priority 2006, published 2008)

Experiments:
[1] = system: patients having myelodysplastic syndromes (MDS); assay: Multi-center, open label, dose escalation study in patients having myelodysplastic syndromes (MDS); type: in vivo, human
Description: In a multi-center, open label, dose escalation study, a group of eight patients having myelodysplastic syndromes (MDS) received intravenous doses of 7-40 mg/m^2 of the mesylate salt of Compound 1 administered as a 24-hour infusion every two weeks. These infusions were administered over a period of several weeks to several months, the first cycle of infusion was administered in a clinical unit but the subsequent four cycles were administered in the ambulatory setting using portable infusion pumps.

[2] = system: patients having chronic lymphocytic leukemia (CLL); assay: Multi-center, double-blind, dose-ranging study in patients having chronic lymphocytic leukemia (CLL); type: in vivo, human
Description: In a multi-center, double-blind, dose-ranging study, two groups of patients having chronic lymphocytic leukemia (CLL) received intravenous doses of either 3.5-14 mg/m^2 of the mesylate salt of Compound 1 administered as a 1-hour infusion, or a 20-40 mg/m2 dose via a 3-hour infusion. These infusions were administered over a period of several weeks to several months.

COC1=CC(c2cc3ccccc3[nH]2)=N/C1=C\c1[nH]c(C)cc1C [Compound 1]
patients who showed hematological improvement in hemoglobin levels ([1]; MDS patients, mesylate salt i.v. 7-40 mg/m^2 as 24-hour infusion every two weeks, FIG. 2A): Three out of eight patients | patients who showed platelet count elevation ([1]; MDS patients, mesylate salt i.v. 7-40 mg/m^2 as 24-hour infusion every two weeks, FIG. 2B, patient 3 was not thrombocytopenic at start): these three patients showed platelet count elevation | patients becoming transfusion independent (hemoglobin responders) ([1]; among the three MDS patients with hemoglobin improvement, FIG. 2A): two of the patients | patients becoming transfusion independent (platelet responders) ([1]; among the three MDS patients with platelet count elevation, FIG. 2B): one of the patients | anemic patients who showed significant hemoglobin elevation ([2]; CLL patients with initial hemoglobin counts of less than 11 g/dL, mesylate salt i.v. 3.5-40 mg/m^2): three out of eleven anemic patients | patients having thrombocytopenia who showed significant increases in platelet count ([2]; CLL patients with initial platelet counts less than 150×10^9/L, mesylate salt i.v. 3.5-14 mg/m^2 as 1-hour infusion or 20-40 mg/m2 as 3-hour infusion, over several weeks to several months): Four patients out of fourteen patients | patients becoming transfusion independent (hemoglobin responders) ([2]; among the three anemic CLL patients with hemoglobin elevation, FIG. 1): two of the patients | increase in platelet count in responding patients ([2]; four responding thrombocytopenic CLL patients, mesylate salt i.v. 3.5-40 mg/m^2): over 50%
